Structures are written as SMILES. Values after ≈ are worked out from the molar mass of the structure shown.

The values that follow come from patent publication US20250018048A1, “FLUCONAZOLE-COX INHIBITOR HYBRIDS: A DUAL-ACTING CLASS OF ANTIFUNGAL AZOLES” (Ramot at Tel-Aviv University Ltd., priority 2022, published 2025).

Type in all cases: cell-based
One test deals with C. guilliermondii T-47. The test is described as follows: MIC80 broth double-dilution assay. The conditions noted are these: YPAD medium, 30° C., 24 h. How it is done: (§1) The antifungal activities of the 24 azole-COX inhibitor hybrids were evaluated against a panel of 16 representative strains of different species of the genus Candida. Candida species cause both superficial and systemic infections. The panel included strains of C. albicans, C. glabrata, C. parapsilosis, C. tropicalis, C. guilliermondii, C. dubliniensis, and C. auris (Table S2). To evaluate antifungal activity, the minimal inhibitory concentration 80% (MIC80) values were determined, which were defined as the lowest drug concentrations with turbidity (measured at OD600) less than or equal to that of specific 1:5 dilutions of the growth control. As controls, FLC and VOR, were tested.
(§2) C. albicans, C. glabrata, C. parapsilosis, C. guilliermondii, C. tropicalis, and C. dubliniensis MICs were determined using CLSI M27-A3 guidelines with minor modifications. Starter cultures were streaked from glycerol stock onto YPAD agar plates and grown for 24 h at 30° C. Colonies were suspended in 1 mL PBS and diluted to 1×10^−3 OD600 and then diluted 1:100 into fresh medium. Hybrids dissolved in DMSO were added to YPAD broth (32 μL stock solution in 1218 μL of YPAD broth), and serial double dilutions of hybrids in YPAD were prepared in flat-bottomed 96-well microplates (Corning) to enable testing of concentrations ranging from 64 μg/mL to 0.003 μg/mL. Control wells with yeast cells but no drug and blank wells containing only YPAD were prepared. An equal volume (100 μL) of yeast suspensions in YPAD broth was added to each well with the exceptions of the blank wells. MIC values (Tables S4-S6) were determined after 24 h at 30° C. by measuring the OD600 using a plate reader (Infinite M200 PRO, Tecan). MIC values were defined as the point at which the OD600 was reduced by >80% compared to the no-drug wells. Each concentration was tested in triplicate, and results were confirmed by two independent sets of experiments. FLC and VOR were used as control drugs.

A further test has as its system C. albicans SN152. The test is described as follows: MIC80 broth double-dilution assay. To be noted: YPAD medium, 30° C., 24 h; parent strain of the erg11ΔΔ/erg3ΔΔ mutant. On the procedure:
as §1
(§3) MIC80 values were determined using the broth microdilution method over a concentration range of 0.003-64 μg/mL. Orange circles represent C. albicans strains, yellow circles represent C. glabrata strains, and green circles represent C. parapsilosis, C. tropicalis, C. dubliniensis and C. auris. Cells were grown in YPAD medium at 30° C. (For C. auris strains 37° C.) 24 h. Each concentration was tested in triplicate, and results were confirmed in at least two independent experiments.
(§4) The clinically used FLC and VOR act primarily by preventing ergosterol biosynthesis via inhibition of CYP51. Analysis was done to determine whether fungal growth inhibition by the hybrids required the presence of the ERG11 gene that encodes for CYP51. The antifungal activities of hybrids 1 and 5 and of FLC and VOR were determined against an erg11ΔΔ/erg3ΔΔ mutant C. albicans strain and against C. albicans SN152 from which this double knockout strain was derived (Table S2). […] Yeast growth was followed at OD600 over 48 h in 96-well plates containing serial double dilutions of the tested hybrids.
as §2

The subject of test [1] is C. albicans 742 (erg11ΔΔ/erg3ΔΔ mutant C. albicans strain). Put plainly: MIC80 broth double-dilution assay, strain lacking CYP51. To be noted: YPAD medium, 30° C., 24 h; erg11ΔΔ/erg3ΔΔ mutant lacking CYP51. How it is done:
as §1, §4, §2

A further test concerns C. albicans ATCC 24433. The test is described as follows: MIC80 broth double-dilution assay. The conditions noted are these: YPAD medium, 30° C., 24 h. How it is done: as §1, §3, §2
A further test deals with C. albicans P-87. Put plainly: MIC80 broth double-dilution assay. To be noted: YPAD medium, 30° C., 24 h. How it is done:
as §1, §3, §2

A further test concerns C. dubliniensis T-99. Put plainly: MIC80 broth double-dilution assay. To be noted: YPAD medium, 30° C., 24 h. How it is done:
as §1, §3, §2

For test [2], the system named is C. parapsilosis ATCC 22019. The test is described as follows: MIC80 broth double-dilution assay. To be noted: YPAD medium, 30° C., 24 h. On the procedure: as §1, §3, §2
In another test the test system is C. albicans ATCC 90028. The test is described as follows: MIC80 broth double-dilution assay. To be noted: YPAD medium, 30° C., 24 h. On the procedure:
as §1, §3, §2

For another test, the system named is C. tropicalis 660. The test is described as follows: MIC80 broth double-dilution assay. The conditions noted are these: YPAD medium, 30° C., 24 h. How it is done: as §1, §3, §2
The next test concerns C. albicans SC5314. Put plainly: MIC80 broth double-dilution assay. To be noted: YPAD medium, 30° C., 24 h. On the procedure: as §1, §3, §2

Consider `C[C@@H](C(=O)NC[C@@](O)(Cn1cncn1)c1ccc(F)cc1F)c1ccc(-c2ccccc2)c(F)c1` [Hybrid 7], for which the “MIC80 against C. guilliermondii T-47” value in the test on C. guilliermondii T-47 was 32 µg/mL (≈ 66.6 µM). Besides, the “MIC80 against C. albicans SN152” value in the test on C. albicans SN152 came to 8 µg/mL (≈ 16.6 µM). Moreover, in [1], the “MIC80 against C. albicans 742” value came to 64 µg/mL (≈ 133 µM). For the same compound, in the test with C. albicans ATCC 24433, the “MIC80 against C. albicans 24433” value was 16 µg/mL (≈ 33.3 µM). For the same compound, in the test with C. albicans P-87, the “MIC80 against C. albicans P-87” value was found to be 4 µg/mL (≈ 8.32 µM). In addition, in the test on C. dubliniensis T-99, the “MIC80 against C. dubliniensis T-99” value came to 0.5 µg/mL (≈ 1.04 µM). Also, in [2], the “MIC80 against C. parapsilosis 22019” value was determined as 8 µg/mL (≈ 16.6 µM). The “MIC80 against C. albicans 90028” value against C. albicans ATCC 90028 was found to be 8 µg/mL (≈ 16.6 µM). For the same compound, the “MIC80 against C. tropicalis 660” value in the test on C. tropicalis 660 was determined as 64 µg/mL (≈ 133 µM). In the test with C. albicans SC5314, the “MIC80 against C. albicans SC5314” value turned out to be 4 µg/mL (≈ 8.32 µM).

Take `CC(C)Cc1ccc([C@H](C)C(=O)NC[C@@](O)(Cn2cncn2)c2ccc(F)cc2F)cc1` [Hybrid 4]: the “MIC80 against C. guilliermondii T-47” value in the test on C. guilliermondii T-47 was 16 µg/mL (≈ 36.2 µM). Also, the “MIC80 against C. albicans SN152” value in the test with C. albicans SN152 is 1 µg/mL (≈ 2.26 µM). In addition, the “MIC80 against C. albicans 742” value in [1] is greater than 64 µg/mL. The “MIC80 against C. albicans 24433” value with C. albicans ATCC 24433 turned out to be 2 µg/mL (≈ 4.52 µM). In addition, the “MIC80 against C. albicans P-87” value against C. albicans P-87 was 0.5 µg/mL (≈ 1.13 µM). Besides, in the test with C. dubliniensis T-99, the “MIC80 against C. dubliniensis T-99” value turned out to be 0.03 µg/mL (≈ 0.0678 µM). Besides, the “MIC80 against C. parapsilosis 22019” value in [2] was determined as 8 µg/mL (≈ 18.1 µM). Also, the “MIC80 against C. albicans 90028” value in the test with C. albicans ATCC 90028 was found to be 1 µg/mL (≈ 2.26 µM). Also, the “MIC80 against C. tropicalis 660” value with C. tropicalis 660 is greater than 64 µg/mL. Moreover, in the test with C. albicans SC5314, the “MIC80 against C. albicans SC5314” value was found to be 1 µg/mL (≈ 2.26 µM).

For the compound `C[C@@H](C(=O)NC[C@](O)(Cn1cncn1)c1ccc(F)cc1F)c1ccc(-c2ccccc2)c(F)c1` [Hybrid 6], in the test on C. guilliermondii T-47, the “MIC80 against C. guilliermondii T-47” value was found to be 2 µg/mL (≈ 4.16 µM). Further, the “MIC80 against C. albicans SN152” value in the test on C. albicans SN152 was 0.06 µg/mL (≈ 0.125 µM). In addition, the “MIC80 against C. albicans 742” value in [1] was greater than 64 µg/mL. For the same compound, in the test with C. albicans ATCC 24433, the “MIC80 against C. albicans 24433” value is 0.12 µg/mL (≈ 0.25 µM). Further, in the test on C. albicans P-87, the “MIC80 against C. albicans P-87” value was determined as 0.03 µg/mL (≈ 0.0624 µM). Moreover, in the test on C. dubliniensis T-99, the “MIC80 against C. dubliniensis T-99” value came out at 2 µg/mL (≈ 4.16 µM). Also, the “MIC80 against C. parapsilosis 22019” value in test [2] stood at 2 µg/mL (≈ 4.16 µM). Also, the “MIC80 against C. albicans 90028” value against C. albicans ATCC 90028 stood at 0.12 µg/mL (≈ 0.25 µM). For the same compound, the “MIC80 against C. tropicalis 660” value against C. tropicalis 660 turned out to be 8 µg/mL (≈ 16.6 µM). Moreover, the “MIC80 against C. albicans SC5314” value against C. albicans SC5314 stood at 0.03 µg/mL (≈ 0.0624 µM).

On to `C[C@H](C(=O)NC[C@@](O)(Cn1cncn1)c1ccc(F)cc1F)c1cccc(C(=O)c2ccccc2)c1` [Hybrid 16], for which the “MIC80 against C. guilliermondii T-47” value in the test on C. guilliermondii T-47 is greater than 64 µg/mL. The “MIC80 against C. albicans SN152” value in the test on C. albicans SN152 was greater than 64 µg/mL. Moreover, the “MIC80 against C. albicans 742” value in test [1] is greater than 64 µg/mL. Besides, the “MIC80 against C. albicans 24433” value against C. albicans ATCC 24433 is greater than 64 µg/mL. For the same compound, the “MIC80 against C. albicans P-87” value with C. albicans P-87 is greater than 64 µg/mL. The “MIC80 against C. dubliniensis T-99” value in the test on C. dubliniensis T-99 was found to be 16 µg/mL (≈ 32.6 µM). Moreover, in test [2], the “MIC80 against C. parapsilosis 22019” value was greater than 64 µg/mL. Moreover, the “MIC80 against C. albicans 90028” value against C. albicans ATCC 90028 is greater than 64 µg/mL. Further, the “MIC80 against C. tropicalis 660” value against C. tropicalis 660 was greater than 64 µg/mL. Moreover, the “MIC80 against C. albicans SC5314” value in the test on C. albicans SC5314 is greater than 64 µg/mL.

`O=C(NC[C@@](O)(Cn1cncn1)c1ccc(F)cc1F)c1cccnc1Nc1cccc(C(F)(F)F)c1` [Hybrid 18]: in the test with C. guilliermondii T-47, the “MIC80 against C. guilliermondii T-47” value is greater than 64 µg/mL. For the same compound, in the test with C. albicans SN152, the “MIC80 against C. albicans SN152” value was found to be 8 µg/mL (≈ 15.4 µM). Besides, in [1], the “MIC80 against C. albicans 742” value turned out to be 64 µg/mL (≈ 123 µM). Moreover, in the test on C. albicans ATCC 24433, the “MIC80 against C. albicans 24433” value was found to be 8 µg/mL (≈ 15.4 µM). For the same compound, the “MIC80 against C. albicans P-87” value against C. albicans P-87 was found to be 16 µg/mL (≈ 30.9 µM). Also, the “MIC80 against C. dubliniensis T-99” value in the test with C. dubliniensis T-99 was 16 µg/mL (≈ 30.9 µM). In addition, in test [2], the “MIC80 against C. parapsilosis 22019” value is 8 µg/mL (≈ 15.4 µM). The “MIC80 against C. albicans 90028” value against C. albicans ATCC 90028 was determined as 16 µg/mL (≈ 30.9 µM). Also, in the test with C. tropicalis 660, the “MIC80 against C. tropicalis 660” value was greater than 64 µg/mL. Besides, the “MIC80 against C. albicans SC5314” value against C. albicans SC5314 worked out at 16 µg/mL (≈ 30.9 µM).
